Assay results taken from publication PMC7022278, “Alpha-Amylase and Alpha-Glucosidase Enzyme Inhibition and Antioxidant Potential of 3-Oxolupenal and Katononic Acid Isolated from Nuxia oppositifolia” (Biomolecules, 2019).
Where “and” joins values, the source holds several entries; their conditions need not be identical. Identical values can stand only once.

Columns and labels:
[1] = molecular target: T1, Porcine α-amylase (pancreatic α-amylase) (Sus scrofa, UniProt P00690); test: Inhibition assay for amylase activity (starch/DNS); assay type: biochemical
T1 construct: purchased Sigma-Aldrich Co., St Louis, MO, USA
T1 sequence (P00690 16-511): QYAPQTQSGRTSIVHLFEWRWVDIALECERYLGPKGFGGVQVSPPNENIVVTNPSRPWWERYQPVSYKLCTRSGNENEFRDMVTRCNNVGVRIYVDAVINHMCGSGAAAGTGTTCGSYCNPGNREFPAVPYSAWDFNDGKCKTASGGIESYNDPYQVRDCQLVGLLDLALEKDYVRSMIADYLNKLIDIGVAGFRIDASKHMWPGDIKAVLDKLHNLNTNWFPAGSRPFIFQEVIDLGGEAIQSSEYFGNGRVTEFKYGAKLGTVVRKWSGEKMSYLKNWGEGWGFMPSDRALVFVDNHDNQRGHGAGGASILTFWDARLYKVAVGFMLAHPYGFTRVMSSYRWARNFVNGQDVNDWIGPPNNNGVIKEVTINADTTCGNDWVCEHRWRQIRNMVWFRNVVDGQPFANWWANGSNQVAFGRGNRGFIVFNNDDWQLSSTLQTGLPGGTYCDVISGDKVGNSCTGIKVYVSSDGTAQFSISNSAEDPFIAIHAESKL
Procedure: The different fractions of the plant and compounds were prepared using 5% dimethyl sulfoxide (DMSO). Fraction/compound (500 µL) of 100 µg/mL concentration (i.e., 50 µg) and 500 µL of 20 mM sodium phosphate buffer (pH 6.8) containing 20 µL of amylase (0.5 mg/mL) were incubated at 25 °C for 10 min. After pre-incubation, 500 µL of 1% starch solution in 0.02 M sodium phosphate buffer (pH 6.9) were added to each tube and incubated for 15 min. The reaction was stopped with 1.0 mL of dinitrosalicyclic acid. The test tubes were then incubated in a boiling water bath for 5 min and cooled to room temperature. The reaction mixture was then diluted after adding 10 mL distilled water, and the absorbance (Abs) was measured at 540 nm. Mean values were obtained from triplicate experiments. The control samples were prepared without any plant extracts/fractions/compounds. The percent inhibition of amylase activity was calculated using the following formula:(1) Inhibition(%)=(AbsControl−AbsCompound/AbsControl)×100 The mean values were obtained from triplicate experiments.

α-glucosidase [2] = test: Inhibition assay for glucosidase activity (pNPG); assay type: biochemical; details: for Inhibition of α-Glucosidase (IC50 value): means of three experiments ± SD; for IC50: molar value in brackets
Procedure: Glucosidase inhibition assay was carried out by following the method of Elya et al. (2008). The different fractions of the plant and compounds were prepared using 5% dimethyl sulfoxide (DMSO). […] Next, 50 μL of 5 mM p-nitrophenyl-α-D-glucopyranoside (pNPG) were added to the mixture to start the reaction. The reaction mixture was incubated at 37 °C for 60 min and stopped by adding 2.5 mL of 0.1 M Na2CO3. […] The mean values were obtained from triplicate experiments. The inhibition of glucosidase activity was calculated as percentage inhibition using Equation (1).

[3] = DPPH radical scavenging activity; details: for DPPH Scavenging Activity (IC50 value): means of three experiments ± SD; for IC50: molar value in brackets
Procedure: The DPPH radical scavenging method measured the antioxidant activity following the method of Braca et al. (2001) with slight modification. The crude extract, fractions, and compounds at 100 µg/mL concentrations were added to 3 mL of 0.004% DPPH solution. In the control sample, methanol was added in place of test extract/fractions/compounds. The DPPH is violet in color at room temperature and the color changes to yellow by either the process of hydrogen or electron donation by antioxidants. Absorbance was measured at 520 nm after 30 min incubation. The percent inhibition was calculated using Equation (1).

[4] = ABTS radical cation scavenging activity; details: for ABTS Scavenging Activity (IC50 value): means of three experiments ± SD; for IC50: molar value in brackets
Procedure: The ABTS radical scavenging activity of the samples was measured using the method of Re et al. (1999) with slight modification. ABTS solution in water (7 mM concentration) and an aqueous solution of potassium persulfate (2.45 mM) were prepared. The two solutions were mixed in the volume ratio 1:1 and stored in the dark 6 h at room temperature to produce the ABTS radical. The blue chromophore, which has a characteristic absorbance at 734 nm, was generated by reacting equal amount of ABTS and potassium persulfate solution. The ABTS stock solution was diluted with ethanol to an absorbance of 0.70 ± 0.02 at 734 nm and equilibrated at 30 °C. The crude extract, different fractions and isolated compounds at 100 µg/mL concentrations were mixed with 2.9 mL of diluted ABTS radical cation solution. The reaction was incubated at 30 °C for 20 min, and the absorbance at 734 nm was measured. The affinity of the test sample to quench the ABTS free radical was evaluated using Equation (1).

α-amylase = molecular target: T2, α-amylase (Sus scrofa, UniProt P00690); test: Fluorescence quenching-based binding study, α-amylase; details: 298 K; for Number of Binding Sites n: pH 6.8
T2 construct: purchased Sigma-Aldrich Co., St Louis, MO, USA
T2 sequence (P00690 16-511): T1 sequence (P00690 16-511)
Procedure: (§1) Proteins were excited at 295 nm and the fluorescence spectra were recorded in the 300–450 nm range. The excitation and emission slit widths were set at 5 nm each. The concentration of proteins was fixed at 2 µM while the concentration of quenchers was varied. The inner filter effect contributed by quenchers was corrected using the following relation. (2) Fcorr=Fobs×e^(Aex+Aem)/2 where Fcorr is the corrected fluorescence intensity, Fobs is the observed fluorescence intensity, Aex is the absorbance at the excitation wavelength, and Aem is the absorbance at the emission wavelength.
(§2) Observing quenching in the fluorescence intensity of a protein in the presence of a ligand is a powerful tool in determining the binding parameters such as binding affinity and Gibb’s free energy of stabilization. Here, we have followed quenching in the fluorescence intensity of α-amylase and α-glucosidase in the presence of 3-oxolupenal and katononic acid at 298 K (Figure 4 and Figure 5). […] The binding parameters for the interaction were deduced using the following Stern–Volmer and modified Stern–Volmer equations. (3) Fo/F=1+KSV[Q]=1+kqτo[Q] (4) log(Fo−F/F)=logKa+nlog[Q] where, Fo and F are the fluorescence intensities of enzymes (α-amylase and α-glucosidase) in the absence and presence of ligands (3-oxolupenal and katononic acid); KSV is the Stern–Volmer constant; [Q] is the molar concentration of ligands (3-oxolupenal and katononic acid); kq is the bimolecular quenching rate constant; τo is the lifetime of enzymes’ fluorescence in the absence of ligands (=5.71 × 10^−9 s); Ka is the binding constant; n is the number of binding sites on the enzyme.

α-glucosidase [5] = test: Fluorescence quenching-based binding study, α-glucosidase; details: 298 K
Procedure: as §1, §2

[6] = means of three experiments ± SD
[7] = pH 6.8, listed as Katononic Acid
[8] = pH 6.8, listed as katononic acid

Row | Structure (SMILES) | IC50 [1, 6] [µM] | IC50 ([1]; molar value in brackets) | Inhibition of α-Glucosidase (IC50 value) (α-glucosidase [2]) [µg/mL] | IC50 (α-glucosidase [2]) [µM] | DPPH Scavenging Activity (IC50 value) [3] [µg/mL] | IC50 [3] [µM] | ABTS Scavenging Activity (IC50 value) [4] [µg/mL] | IC50 [4] [µM] | Number of Binding Sites n (α-amylase) | Bimolecular Quenching Rate Constant (kq) (α-amylase; [7]) [M⁻¹ s⁻¹] | Stern–Volmer Constant (KSV) (α-amylase; [7]) [M⁻¹] | Bimolecular Quenching Rate Constant (kq) (α-amylase; [8]) | Stern–Volmer Constant (KSV) (α-amylase; [8]) | Bimolecular Quenching Rate Constant (kq) (α-glucosidase [5]; [7]) [M⁻¹ s⁻¹] | Stern–Volmer Constant (KSV) (α-glucosidase [5]; [7]) [M⁻¹] | Bimolecular Quenching Rate Constant (kq) (α-glucosidase [5]; [8]) | Stern–Volmer Constant (KSV) (α-glucosidase [5]; [8])
1 | C=C(C=O)[C@@H]1CC[C@]2(C)CC[C@]3(C)[C@H](CC[C@@H]4[C@@]5(C)CCC(=O)C(C)(C)[C@@H]5CC[C@]43C)[C@@H]12 [3-oxolupenal] | 105 | 102 µM and 105 µM | 62.3 ± 2.4 | 142 | 82.7 ± 6.7 | 188 | 84.2 ± 5.1 | 192 | 1.0865 |  |  |  |  |  |  |  | 
2 | Cc1cc(C(C)(C)C)c(O)c(C(C)(C)C)c1 [BHT, butylated hydroxytoluene, reference compound] |  |  |  |  | 16.6 ± 6.2 | 75.3 | 28.0 ± 1.9 | 127 |  |  |  |  |  |  |  |  | 
3 | CC1(C)C(=O)CC[C@]2(C)[C@H]3CC=C4[C@@H]5C[C@](C)(C(=O)O)CC[C@]5(C)CC[C@@]4(C)[C@]3(C)CC[C@@H]12 [Katononic acid, katononic acid] | 115 | 119 µM and 115 µM | 88.6 ± 6.2 | 195 | 87.5 ± 5.4 | 192 | 82.7 ± 4.7 | 182 | 0.7646 | 2.77e+13 | 158000 | ~10^13 M^−1 s^−1 | ~10^5 M^−1 | 3.59e+13 | 205000 | ~10^13 M^−1 s^−1 | ~10^5 M^−1
